Experimental data: the supplement of paper PMC4862054

How the values were obtained:
Settings in all cases: incubation time: 72 h
BT-474 = test: normalised viability (% of control), CellTiter-Blue; higher = more viable cells (100 = DMSO, 0 = benzethonium chloride kill control)
Experimental: (§1)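 DSRT, CellTiter-Blue viability, 72 h incubation. Signal is normalised to DMSO and benzethonium chloride controls. Value is the normalised response at dose 1.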

BT-549 = test: as above
Experimental: as §1

CAL-120 [1] = test: as above
Experimental: as §1

CAL-85-1 [2] = test: as above
Experimental: as §1

DU-4475 = test: as above
Experimental: as §1

HCC1143 [3] = test: as above
Experimental: as §1

HCC1599 = test: as above
Experimental: as §1

HCC1937 = test: as above
Experimental: as §1

HDQ-P1 [4] = test: as above
Experimental: as §1

Hs578T [5] = test: as above
Experimental: as §1

MDA-MB-231 [6] = test: as above
Experimental: as §1

MDA-MB-436 = test: as above
Experimental: as §1

MDA-MB-453 [7] = test: as above
Experimental: as §1

MDA-MB-468 [8] = test: as above
Experimental: as §1

SK-BR-3 = test: as above
Experimental: as §1

CAL-120 [9] = test: drug sensitivity score (DSS), CellTox Green (DSS (AUC-based score)); higher = stronger drug effect (viability inhibition or cytotoxicity); extreme values may be limits of the assay
Procedure, shortened: (§2)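 Compound was dispensed into 384-well plates at 5 concentrations in 10-fold steps spanning a 10,000-fold range chosen for each compound, and 20 µl of breast cancer cell suspension was added before 72 h of incubation. CellTox Green fluorescence was read at 485/520 nm, followed by CellTiter-Glo luminescence after 10 min at room temperature. Values on each plate were normalised to 0.1 % DMSO and a positive kill control. The drug sensitivity score came from the area under the fitted dose-response curve.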

CAL-148 = test: as above
Procedure, shortened: as §2

CAL-51 = test: as above
Procedure, shortened: as §2

CAL-85-1 [10] = test: as above
Procedure, shortened: as §2

HCC1143 [11] = test: as above
Procedure, shortened: as §2

HDQ-P1 [12] = test: as above
Procedure, shortened: as §2

Hs578T [13] = test: as above
Procedure, shortened: as §2

MCF-10A = test: as above
Procedure, shortened: as §2

MDA-MB-231 [14] = test: as above
Procedure, shortened: as §2

MDA-MB-453 [15] = test: as above
Procedure, shortened: as §2

MDA-MB-468 [16] = test: as above
Procedure, shortened: as §2

MFM-223 = test: as above
Procedure, shortened: as §2

## CCCCCCCCc1ccc(CCC(N)(CO)CO)cc1 [Fingolimod]
BT-474; 1 nM
  normalised viability: 97.7%
BT-549; 1 nM
  normalised viability: 106%
CAL-120 [1]; 1 nM
  normalised viability: 82.3%
CAL-85-1 [2]; 1 nM
  normalised viability: 85.8%
DU-4475; 1 nM
  normalised viability: 122%
HCC1143 [3]; 1 nM
  normalised viability: 92.5%
HCC1599; 1 nM
  normalised viability: 105%
HCC1937; 1 nM
  normalised viability: 96.5%
HDQ-P1 [4]; 1 nM
  normalised viability: 130%
Hs578T [5]; 1 nM
  normalised viability: 97.6%
MDA-MB-231 [6]; 1 nM
  normalised viability: 95.6%
MDA-MB-436; 1 nM
  normalised viability: 113%
MDA-MB-453 [7]; 1 nM
  normalised viability: 94%
MDA-MB-468 [8]; 1 nM
  normalised viability: 106%
SK-BR-3; 1 nM
  normalised viability: 102%
CAL-120 [9]
  drug sensitivity score: 0.861
CAL-148
  drug sensitivity score: 0
CAL-51
  drug sensitivity score: 1.3
CAL-85-1 [10]
  drug sensitivity score: 7.94
HCC1143 [11]
  drug sensitivity score: 0
HDQ-P1 [12]
  drug sensitivity score: 2.47
Hs578T [13]
  drug sensitivity score: 1.46
MCF-10A
  drug sensitivity score: 11.1
MDA-MB-231 [14]
  drug sensitivity score: 6.51
MDA-MB-453 [15]
  drug sensitivity score: 1.86
MDA-MB-468 [16]
  drug sensitivity score: 6.79
MFM-223
  drug sensitivity score: 0.724

## C/C(=C\c1csc(C)n1)[C@@H]1C[C@@H]2O[C@]2(C)CCC[C@H](C)[C@H](O)[C@@H](C)C(=O)C(C)(C)[C@@H](O)CC(=O)O1 [Patupilone]
BT-474; 0.1 nM
  normalised viability: 97.7%
BT-549; 0.1 nM
  normalised viability: 113%
CAL-120 [1]; 0.1 nM
  normalised viability: 94.6%
CAL-85-1 [2]; 0.1 nM
  normalised viability: 93.4%
DU-4475; 0.1 nM
  normalised viability: 98.7%
HCC1143 [3]; 0.1 nM
  normalised viability: 102%
HCC1599; 0.1 nM
  normalised viability: 97.3%
HCC1937; 0.1 nM
  normalised viability: 95.6%
HDQ-P1 [4]; 0.1 nM
  normalised viability: 112%
Hs578T [5]; 0.1 nM
  normalised viability: 118%
MDA-MB-231 [6]; 0.1 nM
  normalised viability: 129%
MDA-MB-436; 0.1 nM
  normalised viability: 116%
MDA-MB-453 [7]; 0.1 nM
  normalised viability: 97.5%
MDA-MB-468 [8]; 0.1 nM
  normalised viability: 101%
SK-BR-3; 0.1 nM
  normalised viability: 102%
CAL-120 [9]
  drug sensitivity score: 2.68
CAL-148
  drug sensitivity score: 8.8
CAL-51
  drug sensitivity score: 21
CAL-85-1 [10]
  drug sensitivity score: 14.4
HCC1143 [11]
  drug sensitivity score: 0.908
HDQ-P1 [12]
  drug sensitivity score: 0
Hs578T [13]
  drug sensitivity score: 7.9
MCF-10A
  drug sensitivity score: 7.87
MDA-MB-231 [14]
  drug sensitivity score: 9.94
MDA-MB-453 [15]
  drug sensitivity score: 0
MDA-MB-468 [16]
  drug sensitivity score: 25.1
MFM-223
  drug sensitivity score: 3

## CN1CCN(CCOc2cc(OC3CCOCC3)c3c(Nc4c(Cl)ccc5c4OCO5)ncnc3c2)CC1 [Saracatinib]
BT-474; 1 nM
  normalised viability: 93.9%
BT-549; 1 nM
  normalised viability: 89.4%
CAL-120 [1]; 1 nM
  normalised viability: 82.4%
CAL-85-1 [2]; 1 nM
  normalised viability: 88.7%
DU-4475; 1 nM
  normalised viability: 107%
HCC1143 [3]; 1 nM
  normalised viability: 80.9%
HCC1599; 1 nM
  normalised viability: 97.2%
HCC1937; 1 nM
  normalised viability: 99.4%
HDQ-P1 [4]; 1 nM
  normalised viability: 113%
Hs578T [5]; 1 nM
  normalised viability: 107%
MDA-MB-231 [6]; 1 nM
  normalised viability: 85.5%
MDA-MB-436; 1 nM
  normalised viability: 122%
MDA-MB-453 [7]; 1 nM
  normalised viability: 105%
MDA-MB-468 [8]; 1 nM
  normalised viability: 104%
SK-BR-3; 1 nM
  normalised viability: 91.5%
CAL-120 [9]
  drug sensitivity score: 0
CAL-148
  drug sensitivity score: 0
CAL-51
  drug sensitivity score: 6.5
CAL-85-1 [10]
  drug sensitivity score: 6.93
HCC1143 [11]
  drug sensitivity score: 0
HDQ-P1 [12]
  drug sensitivity score: 2.22
Hs578T [13]
  drug sensitivity score: 0
MCF-10A
  drug sensitivity score: 0
MDA-MB-231 [14]
  drug sensitivity score: 0
MDA-MB-453 [15]
  drug sensitivity score: 0
MDA-MB-468 [16]
  drug sensitivity score: 0
MFM-223
  drug sensitivity score: 0

## Cn1cncc1[C@@](N)(c1ccc(Cl)cc1)c1ccc2c(c1)c(-c1cccc(Cl)c1)cc(=O)n2C [Tipifarnib]
BT-474; 1 nM
  normalised viability: 92.1%
BT-549; 1 nM
  normalised viability: 120%
CAL-120 [1]; 1 nM
  normalised viability: 78%
CAL-85-1 [2]; 1 nM
  normalised viability: 81.1%
DU-4475; 1 nM
  normalised viability: 104%
HCC1143 [3]; 1 nM
  normalised viability: 85.6%
HCC1599; 1 nM
  normalised viability: 90.4%
HCC1937; 1 nM
  normalised viability: 89%
HDQ-P1 [4]; 1 nM
  normalised viability: 105%
Hs578T [5]; 1 nM
  normalised viability: 93.2%
MDA-MB-231 [6]; 1 nM
  normalised viability: 98.8%
MDA-MB-436; 1 nM
  normalised viability: 98.5%
MDA-MB-453 [7]; 1 nM
  normalised viability: 94.7%
MDA-MB-468 [8]; 1 nM
  normalised viability: 105%
SK-BR-3; 1 nM
  normalised viability: 92.5%
CAL-120 [9]
  drug sensitivity score: 0
CAL-148
  drug sensitivity score: 0
CAL-51
  drug sensitivity score: 10.3
CAL-85-1 [10]
  drug sensitivity score: 0.98
HCC1143 [11]
  drug sensitivity score: 0
HDQ-P1 [12]
  drug sensitivity score: 0
Hs578T [13]
  drug sensitivity score: 0
MCF-10A
  drug sensitivity score: 0
MDA-MB-231 [14]
  drug sensitivity score: 0
MDA-MB-453 [15]
  drug sensitivity score: 0
MDA-MB-468 [16]
  drug sensitivity score: 0
MFM-223
  drug sensitivity score: 0

## O=C1NC(=O)[C@@H](c2cn3c4c(cccc24)CCC3)[C@@H]1c1c[nH]c2ccccc12 [Tivantinib]
BT-474; 0.1 nM
  normalised viability: 128%
BT-549; 0.1 nM
  normalised viability: 105%
CAL-120 [1]; 0.1 nM
  normalised viability: 90.1%
CAL-85-1 [2]; 0.1 nM
  normalised viability: 101%
DU-4475; 0.1 nM
  normalised viability: 107%
HCC1143 [3]; 0.1 nM
  normalised viability: 108%
HCC1599; 0.1 nM
  normalised viability: 85.6%
HCC1937; 0.1 nM
  normalised viability: 86.3%
HDQ-P1 [4]; 0.1 nM
  normalised viability: 83.2%
Hs578T [5]; 0.1 nM
  normalised viability: 101%
MDA-MB-231 [6]; 0.1 nM
  normalised viability: 111%
MDA-MB-436; 0.1 nM
  normalised viability: 127%
MDA-MB-453 [7]; 0.1 nM
  normalised viability: 101%
MDA-MB-468 [8]; 0.1 nM
  normalised viability: 110%
SK-BR-3; 0.1 nM
  normalised viability: 95%
CAL-120 [9]
  drug sensitivity score: 1.28
CAL-148
  drug sensitivity score: 7.13
CAL-51
  drug sensitivity score: 2.14
CAL-85-1 [10]
  drug sensitivity score: 5.35
HCC1143 [11]
  drug sensitivity score: 0
HDQ-P1 [12]
  drug sensitivity score: 0
Hs578T [13]
  drug sensitivity score: 5.63
MCF-10A
  drug sensitivity score: 0
MDA-MB-231 [14]
  drug sensitivity score: 3.62
MDA-MB-453 [15]
  drug sensitivity score: 0
MDA-MB-468 [16]
  drug sensitivity score: 0
MFM-223
  drug sensitivity score: 0

## CC[C@]1(O)C[C@H]2CN(CCc3c([nH]c4ccccc34)[C@@](C(=O)OC)(c3cc4c(cc3OC)N(C=O)[C@H]3[C@@](O)(C(=O)OC)[C@H](OC(C)=O)[C@]5(CC)C=CCN6CC[C@]43[C@@H]65)C2)C1 [Vincristine]
BT-474; 0.1 nM
  normalised viability: 97.2%
BT-474; 1 nM
  normalised viability: 41.5%
BT-549; 0.1 nM
  normalised viability: 93.1%
BT-549; 1 nM
  normalised viability: 93.5%
CAL-120 [1]; 0.1 nM
  normalised viability: 77.9%
CAL-120 [1]; 1 nM
  normalised viability: 57.7%
CAL-85-1 [2]; 0.1 nM
  normalised viability: 86.5%
CAL-85-1 [2]; 1 nM
  normalised viability: 91.8%
DU-4475; 0.1 nM
  normalised viability: 97.6%
DU-4475; 1 nM
  normalised viability: 88.9%
HCC1143 [3]; 0.1 nM
  normalised viability: 80%
HCC1143 [3]; 1 nM
  normalised viability: 89.6%
HCC1599; 0.1 nM
  normalised viability: 119%
HCC1599; 1 nM
  normalised viability: 93.9%
HCC1937; 0.1 nM
  normalised viability: 74.4%
HCC1937; 1 nM
  normalised viability: 79.4%
HDQ-P1 [4]; 0.1 nM
  normalised viability: 90%
HDQ-P1 [4]; 1 nM
  normalised viability: 95.3%
Hs578T [5]; 0.1 nM
  normalised viability: 120%
Hs578T [5]; 1 nM
  normalised viability: 92.6%
MDA-MB-231 [6]; 0.1 nM
  normalised viability: 95.8%
MDA-MB-231 [6]; 1 nM
  normalised viability: 82.5%
MDA-MB-436; 0.1 nM
  normalised viability: 89.4%
MDA-MB-436; 1 nM
  normalised viability: 109%
MDA-MB-453 [7]; 0.1 nM
  normalised viability: 107%
MDA-MB-453 [7]; 1 nM
  normalised viability: 88.5%
MDA-MB-468 [8]; 0.1 nM
  normalised viability: 87.5%
MDA-MB-468 [8]; 1 nM
  normalised viability: 49.2%
SK-BR-3; 0.1 nM
  normalised viability: 87.9%
SK-BR-3; 1 nM
  normalised viability: 25.5%
CAL-120 [9]
  drug sensitivity score: 1.68
CAL-148
  drug sensitivity score: 0
CAL-51
  drug sensitivity score: 14.1
CAL-85-1 [10]
  drug sensitivity score: 14.4
HCC1143 [11]
  drug sensitivity score: 0
HDQ-P1 [12]
  drug sensitivity score: 0
Hs578T [13]
  drug sensitivity score: 8.32
MCF-10A
  drug sensitivity score: 14.2
MDA-MB-231 [14]
  drug sensitivity score: 15.7
MDA-MB-453 [15]
  drug sensitivity score: 0
MDA-MB-468 [16]
  drug sensitivity score: 22.1
MFM-223
  drug sensitivity score: 12.5
